Reference: patent US5141735A (priority 1990, dated 1992)
Like-named read-outs stand apart in the source and are kept apart here.

How the values were obtained:
[1] = system: HIV-1-infected CEM-cells (strain N1T); experiment: Anti-HIV effect: reduction of immunofluorescence-positive CEM cells (cell-associated viral antigens); assay type: cell-based
Experimental: (§1) Compounds were tested directly for their anti-HIV effect. The assay protocols for the inhibition of HIV-cytopathic effect and the reduction of cell-associated viral antigens were modified from published procedures (Mitsuya, et al. P.N.A.S, USA 83:1911 (1986), and Hedenskog et al., J. Med. Virol. 19:325 (I986)).
(§2) High titer virus stocks (HIV-1 NIT strain or HIV-2 uc-1 strain) were grown in CD4^+ CR10 cells in RMPI-1640 media (Gibco Laboratories) supplemented with 10% fetal calf serum and 0.1 mg/ml Gentamicin. The collected media were filtered through a 0.8 micron filter and virus isolates were concentrated 100 fold and stored at -80° C.
(§3) CD4^+ CEM cells, propagated in the same medium, were incubated for 60 minutes at 37° C. with diluted stock virus at a multiplicity of infection equal to 1 (MOI=1, approximately 1 pg p24 or 4,000 viral particles per cell). Cells were washed three times with phosphate buffered saline and resuspended in the medium at 2×10^5 cells/ml. Various quantities of the test compound in DMSO, synthesized as described above were added. Four days after infection, the number of live cells were counted by trypan blue exclusion (Mitsuya, et al. Proc. Natl. Acad. Sci. 83:1911 (1986)). At the same time, aliquots of cells were fixed with acetone and stained with antibodies from AIDS patients, followed by a second staining with fluorescein-conjugated goat anti-human IgG (Cappel). Cells stained with the fluorescent antibody were counted using a fluorescence microscope and the results were expressed as percentage of the total number of cells counted (Hedenskog et al., J. Med. Virol 19:325 (1986)).
*ID50 (μM) is the concentration of test compound that reduces the
number of immunofluorescence positive cells by 50%.

HIV-1-infected CEM-cells = experiment: Inhibition of HIV-cytopathic effect: live cell count by trypan blue exclusion; assay type: cell-based
Experimental: as §1, §2, §3

viral p24 antigen = experiment: Viral p24 antigen in culture media measured by ELISA; assay type: cell-based, HIV; conditions: acutely infected CEM cells, FIG. 2
Experimental: As an additional measure of anti-HIV activity, the amount of p24 antigen in the culture media was measured by ELISA (Abbott) according to the procedure described by the manufacturer. This measurement is an indication of HIV virus replication.

viral RNA = experiment: Cell-associated viral RNA by RNA-RNA hybridization/reversible target capture; assay type: cell-based, HIV; conditions: acutely infected CEM cells, FIG. 2
Experimental: In addition, the viral RNA in infected cells was quantified with an RNA-RNA hybridization/reversible target capture procedure [Gillespie et al. Molecular and Cellular Probes, 2:73 (1989)]. Reagents were purchased from GeneTrack System (MA, USA) and assays were carried out according to the procedure described by the manufacturers. 2×10^5 live cells, determined by trypan blue exclusion, were used in each assay.

HIV-TAT [2] = experiment: Anti-HIV-TAT transfection assay (SeAP under HIV-LTR vs RSV-LTR in COS cells); assay type: cell-based; conditions: 1-50 μM; HIV-LTR/SeAP relative to RSV-LTR/SeAP; added 24 hours post transfection; average of at least three tests
Experimental: The compounds of the present invention were also tested for anti-HIV-TAT activity in an anti-TAT assay described in co-pending patent application U.S. Ser. No. 07/428,555, filed on Oct. 30, 1989, and hereby incorporated by reference. This assay comprises the following steps:
(a) putting both the expression of the Secreted Alkaline Phosphatase (SeAP) gene and the viral transactivator TAT gene under the control of the HIV promoter LTR responsive to the action of the HIV transactivator TAT;
(b) transfecting cultured mammalian cells with plasmids which contain the gene constructs of (a) above and cause cellular production of the transactivating factor TAT and SeAP;
(c) adding the agent to be tested, here compounds of formula I; and
(d) determining the amount of SeAP produced by measuring SeAP enzymatic activity, whereby inhibition of SeAP production correlates with the anti-TAT inhibition activity.
In this assay, the inhibition of SeAP positively correlates with anti-TAT activity. The greater the ability of an agent to inhibit SeAP, the greater is its anti-TAT activity.
Specifically, with respect to the results reported below, the anti-HIV-TAT assay was run as follows: […]
determined by measuring the amount of alkaline phosphatase in […]
calculated according to the formula: […]

HIV-TAT [3] = experiment: Anti-HIV-TAT activity in CHO-derived cell lines constitutively expressing SeAP under HIV-LTR; assay type: cell-based; conditions: FIG. 4
Experimental: (§4) Compounds of formula I were also tested for anti-HIV-TAT activity with cell lines that constitutively express the SeAP gene under the control of the HIV-LTR. Cell lines 193c, 191F and 199F were derived from CHO cells (cell line of Chinese hamster ovary origin). Each line is of clonal origin and has the HIV-LTR/SeAP and the HIV-LTR/TAT sequences integrated in the cellular chromosome. One day after cells were plated (approximately 30% confluency), a compound of formula I in DMSO (0.05% final concentration) was added to the culture media at desired concentrations. The cells were washed and Compound A was replenished one day later. SeAP activity was assayed two days after the second addition of test compound. The cytotoxic effect of the compound was measured with a MTT assay, an art-recognized measurement of cytotoxicity. See Denigot et al., J. Immunol. Methods 89:271 (1986). This assay also confirmed the specific anti-TAT activity of applicants' compounds.

[4] = system: Cell lines 193c, 191F and 199F; experiment: Cytotoxicity by MTT assay in CHO-derived cell lines 193c, 191F and 199F; assay type: cell-based, Chinese hamster; conditions: FIG. 4
Experimental: The Y-axis is (1) the percent inhibition in TAT transactivation measured according to SeAP activity in culture media (discussed infra), and (2) a measurement of cytotoxicity based on an MTT assay. The MTT assay is a known tetrazolium-based assay which measures the viability of cells. The X-axis is the concentration of compound. The solid circles, diamonds and squares represent the three different cell lines identified at the bottom of the Figure.
as §4, with “This assay also confirmed the specific anti-TAT activity of applicants' compounds.” left out

viremia = conditions: cited from earlier work
HIV = conditions: body weight; cited from earlier work
[5] = Human immunodeficiency virus 1, CCRF-CEM, 96 h, concentration that reduces the number of immunofluorescence positive cells by 50%, Table I, read-out: Anti-HIV ID50

CNC1=Nc2ccc(Cl)cc2C(c2ccc[nH]2)=NC1 [Compound A, 7-chloro-N-methyl-5-(1H-pyrrol-2-yl)-3H-1,4-benzodiazepin-2-amine]
IC50 ([1]; Human immunodeficiency virus 1, CCRF-CEM, 96 h, FIG. 1, HIV-1-infected CEM-cells (strain N1T), read-out: ID50 (the source's name)): 500 nM | IC90 ([1]; Human immunodeficiency virus 1, CCRF-CEM, 96 h, FIG. 1, HIV-1-infected CEM-cells (strain N1T), read-out: ID90 (the source's name)): 1000 nM | IC50 [1, 5]: 500 to 1000 nM | percentage of cells that are immunofluorescence-positive following staining with HIV antibodies ([1]; increasing amounts of compound, FIG. 1): decline in the percentage of cells that are immunofluorescence-positive | survival rate for the HIV-infected cells (HIV-1-infected CEM-cells; 5 μM, FIG. 1, HIV-1-infected CEM-cells): very close to that of uninfected cells | survival of HIV-infected cells with increasing concentrations (HIV-1-infected CEM-cells; FIG. 1): greater survival of HIV-infected cells | cell survival in comparison to AZT or ddC (HIV-1-infected CEM-cells; acutely infected CEM cells, FIG. 2): at least similar, and at several compound concentrations, better, cell survival than AZT or ddC | amount of viral p24 antigen (viral p24 antigen): dramatically reduces | amount of cell-associated viral RNA (viral RNA): dramatically reduces | Anti-HIV-TAT Activity (% Inhibition) (HIV-TAT [2]): > 60% | inhibition of SeAP expression under the control of the HIV-LTR promoter (HIV-TAT [3]): significantly inhibits SeAP expression | cytotoxic effect on the cells [4]: no cytotoxic effect on the cells

NC1=Nc2ccc(Cl)cc2C(c2ccc[nH]2)=NC1 [NH2, 7-chloro-5-(1H-pyrrol-2-yl)-3H-1,4-benzodiazepin-2-amine]
IC50 [1, 5]: 1000 nM | Anti-HIV-TAT Activity (% Inhibition) (HIV-TAT [2]): > 60%

Cc1cn([C@H]2C[C@H](N=[N+]=[N-])[C@@H](CO)O2)c(=O)[nH]c1=O [AZT]
elimination of viremia in patients (viremia): does not eliminate viremia in patients | drug resistance (viremia; patients): eventually the appearance of drug-resistant mutant viruses is evidenced

Nc1ccn([C@H]2CC[C@@H](CO)O2)c(=O)n1 [ddC]
virustatic dose range in most patients (HIV): 5 to 250 µg/kg
